Test results reported in patent publication US12636340B2, “Methods of treating multiple myeloma” (ONYX PHARMACEUTICALS, INC., priority 2020, dated 2026).

Type: in vivo
Conditions: both treatment groups together
Method: Key exclusion criteria related to significant baseline pulmonary and cardiac disease, including uncontrolled hypertension (defined as an average systolic blood pressure >159 mmHg or diastolic >99 mmHg despite optimal treatment). Analysis of LVEF changes over time was conducted. Long-term corticosteroid treatment equivalent to a dexamethasone dose of 4.0 mg/day or prednisone at a dose of >20 mg/day was not permitted while receiving study treatment. Corticosteroids administered short-term (up to 2 weeks) were permitted, provided the cumulative dose was less than a 40 mg per week dexamethasone equivalent.
Randomization was performed using an interactive voice or web response system. […]
Statistical analysis: Efficacy evaluations were based on the intention-to-treat population. […] For primary and key secondary endpoints, response and disease progression were determined by a blinded Independent Review Committee. Additionally, they were determined locally by investigators in an unblinded manner and centrally by the sponsor using a validated computer algorithm, which served as sensitivity analysis of PFS.
Descriptive statistics identified the extent of missing data. […] For patients who died on study, the death date was recorded on the end of study CRF page at the end of the study date. […]

In the case of `CC(C)C[C@H](NC(=O)[C@H](CCc1ccccc1)NC(=O)CN1CCOCC1)C(=O)N[C@@H](Cc1ccccc1)C(=O)N[C@@H](CC(C)C)C(=O)[C@@]1(C)CO1` [carfilzomib], the “patients who discontinued carfilzomib due to AEs, overall” value is reported as 21.3%.
